# Assay results reported in the supplement of paper PMC13380429.
# Key:
# Settings in all cases: 72 h
# [1] = system: Caco-2; experiment: drug sensitivity score (DSS) for viability; higher = more toxic; extreme values may be limits of the assay
# [2] = system: U2OS; experiment: as above
# [3] = system: Calu-3; experiment: as above
# [4] = system: HepG2; experiment: as above
# [5] = system: Caco-2; experiment: cell viability relative to DMSO; higher = less toxic
# [6] = system: U2OS; experiment: as above
# [7] = system: Calu-3; experiment: as above
# [8] = system: HepG2; experiment: as above
# [9] = system: Caco-2; experiment: relative viability EC50 (midpoint between 100% and the lowest measured viability); higher = less toxic
# [10] = system: U2OS; experiment: as above
# [11] = system: Calu-3; experiment: as above
# [12] = system: HepG2; experiment: as above
# [13] = system: Vero E6; experiment: drug sensitivity score (DSS) for viability; higher = more toxic; extreme values may be limits of the assay
# [14] = system: Vero E6; experiment: cell viability relative to DMSO; higher = less toxic
Structure (SMILES),drug sensitivity score [1],drug sensitivity score [2],drug sensitivity score [3],drug sensitivity score [4],cell viability ([5]; 1 nM) [%],cell viability ([5]; 10 nM) [%],cell viability ([5]; 100 nM) [%],cell viability ([5]; 1000 nM) [%],cell viability ([5]; 10000 nM) [%],cell viability ([6]; 1 nM) [%],cell viability ([6]; 10 nM) [%],cell viability ([6]; 100 nM) [%],cell viability ([6]; 1000 nM) [%],cell viability ([6]; 10000 nM) [%],cell viability ([7]; 1 nM) [%],cell viability ([7]; 10 nM) [%],cell viability ([7]; 100 nM) [%],cell viability ([7]; 1000 nM) [%],cell viability ([7]; 10000 nM) [%],cell viability ([8]; 1 nM) [%],cell viability ([8]; 10 nM) [%],cell viability ([8]; 100 nM) [%],cell viability ([8]; 1000 nM) [%],cell viability ([8]; 10000 nM) [%],relative viability EC50 [9] [µM],relative viability EC50 [10] [µM],relative viability EC50 [11] [µM],relative viability EC50 [12] [µM],drug sensitivity score [13],cell viability ([14]; 1 nM) [%],cell viability ([14]; 10 nM) [%],cell viability ([14]; 100 nM) [%],cell viability ([14]; 1000 nM) [%],cell viability ([14]; 10000 nM) [%]
CC[N+](CC)(CC)CCOc1cccc(OCC[N+](CC)(CC)CC)c1OCC[N+](CC)(CC)CC [gallamine-triethiodide],0,0,0,0,104,96.2,91.5,98.2,101,103,101,102,99.8,100,104,108,104,90.8,95,94.7,102,94,93.1,95.6,> 10,> 10,> 10,> 10,,,,,,
COC(=O)C1=CO[C@@H](O[C@@H]2O[C@H](CO)[C@@H](O)[C@H](O)[C@H]2O)[C@@H]2C(CO)=CC[C@H]12 [geniposide],0,0,0,0,99.6,94.5,93.5,95.9,93.9,93.9,99.4,94.9,99.5,99,84.8,98.2,91.2,96.4,98.4,104,95.5,106,114,92.4,> 10,> 10,> 10,> 10,,,,,,
CC(C)Cc1ccc(C(C)C(=O)NO)cc1 (stereo not given) [ibuproxam],,0,0,0,,,,,,,,,,,,,,,,,,,,,,,,,0,,,,,
c1cc(Cc2cnc[nH]2)ccn1 [immethridine],0,0,0,0,99.7,103,95,97.1,90.3,94.1,99.9,97.4,102,98.4,107,96.8,94.6,94.8,103,93.8,104,99.1,93.4,97,> 10,> 10,> 10,> 10,,,,,,
CNC(=O)c1c(I)c(C(=O)NCC(=O)Nc2c(I)c(C(=O)O)c(I)c(C(=O)NCCO)c2I)c(I)c(N(C)C(C)=O)c1I [ioxaglic-acid],0,0,0,0,104,92.4,106,100,103,106,96.9,102,101,104,109,101,97.2,102,95.5,95.9,98.4,94,98.2,96.9,> 10,> 10,> 10,> 10,,,,,,
CCOC(=O)CSCCC1NC(C(=O)O)CS1 (stereo not given) [letosteine],0,0,0,0,90.8,80.7,97.4,97.9,75.5,101,102,107,99.6,103,97.6,97.1,116,96.9,101,80.5,96.4,98.7,95.6,92.9,> 10,> 10,> 10,> 10,1.1,75.4,102,74.4,98.3,93.3
N[C@H](Cc1cc(I)c(Oc2ccc(O)c(I)c2)c(I)c1)C(=O)O [liothyronine-(isomer)],0,0,,0,99.7,92.9,100,104,92.7,101,99.9,96.8,102,96,,,,,,109,99.7,107,102,105,,,,,0,98.8,92.9,93.1,90.7,91.1
CC1CS(=O)(=O)CCN1/N=C/c1ccc([N+](=O)[O-])o1 (stereo not given) [nifurtimox],,0,0,0,,,,,,,,,,,,,,,,,,,,,,,,,0,,,,,
O=C(O)c1cc(=O)[nH]c(=O)[nH]1 [orotic-acid],0,0,0,0,105,94.8,92.6,80,102,102,101,104,97.7,99.4,103,98.7,97.6,99.6,100,106,117,98.6,106,100,> 10,> 10,> 10,> 10,,,,,,
CC(=O)O[C@H]1C(=O)[C@@]2(C)[C@H]([C@H](OC(=O)c3ccccc3)[C@]3(O)C[C@H](OC(=O)[C@H](O)[C@@H](NC(=O)c4ccccc4)c4ccccc4)C(C)=C1C3(C)C)[C@]1(OC(C)=O)CO[C@@H]1C[C@@H]2O [paclitaxel],14.7,25.9,16.4,24.9,109,84.8,61.7,57,48.7,101,67.9,32.9,30.3,26.3,97.9,64.3,62.6,68.5,65.7,108,64.9,42.8,36.5,34.4,0.0334,0.0128,,0.0095,8.6,103,98.3,91.6,59.8,74.2
N=C(N)c1ccc(OCCCCCOc2ccc(C(=N)N)cc2)cc1 [pentamidine],1.9,1.8,0,13.9,90.1,93.4,92.2,93.9,71.7,105,105,101,96.3,71.5,94.7,104,104,96,94.5,104,97.5,105,22.5,18.3,,,> 10,0.39,3.4,107,65.4,92.6,79.8,82.9
Cc1nc(=O)c2cc(CN(C)c3ccc(C(=O)N[C@@H](CCC(=O)O)C(=O)O)s3)ccc2[nH]1 [raltitrexed],13.4,0,2,10.5,91.2,99,64.2,59.9,50.1,99.1,105,100,97.4,95.8,103,104,87.4,92.6,85.8,111,104,70.7,60.7,65.1,,> 10,> 10,,10.7,98.8,101,66.1,62.9,66.6
O=C(O)c1cn(-c2ccc(F)cc2)c2cc(N3CCNCC3)c(F)cc2c1=O [sarafloxacin],0,0,0,0,98.3,87.3,95.6,98,97.4,101,108,99.2,100,97.4,93.1,95.7,102,99.7,101,113,98.8,101,94.4,99.6,> 10,> 10,> 10,> 10,,,,,,
C[C@]1(Cn2ccnn2)[C@H](C(=O)O)N2C(=O)C[C@H]2S1(=O)=O [tazobactam],0,0,0,0,81.7,96.4,91.3,94.6,85.4,95.4,102,98.9,100,95.6,93.2,98.7,91.6,94.3,105,107,102,97.4,113,107,> 10,> 10,> 10,> 10,,,,,,
CO[C@H]1C[C@@H]2CC[C@@H](C)[C@@](O)(O2)C(=O)C(=O)N2CCCC[C@H]2C(=O)O[C@H]([C@H](C)C[C@@H]2CC[C@H](n3cnnn3)[C@H](OC)C2)CC(=O)[C@H](C)/C=C(\C)[C@@H](O)[C@@H](OC)C(=O)[C@H](C)C[C@H](C)/C=C/C=C/C=C/1C [zotarolimus],19.5,19.9,22.1,15.4,82.5,63.1,60,52.9,60.3,93.4,61.8,60.2,56.9,52.5,68.2,59.4,54.5,46.3,52.2,84.4,74,63.1,62.9,61.1,,,< 0.001,,11.9,92.6,85.2,69.6,61,58.7
